In ChEMBL document CHEMBL5634141 (Eur J Med Chem, 2023):
Activity calls are given as the source filed them. The rule behind the calls is not given here.

Experiments:
[1] = tested on: NCI-H358; test: Antiproliferative activity against human NCI-H358 cells expressing KRAS G12C mutant assessed as inhibition of cell growth incubated for 72 hrs by CCK-8 assay; assay type: functional, cell-based; details: NCI-H358, 72 h
[2] = tested on: ASPC1; test: Antiproliferative activity against human ASPC1 cells expressing KRAS G12D mutant assessed as inhibition of cell growth incubated for 72 hrs by CCK-8 assay; assay type: functional, cell-based; details: ASPC1, 72 h
[3] = tested on: HepG2; test: Antiproliferative activity against human HepG2 cells expressing KRAS assessed as inhibition of cell growth incubated for 72 hrs by CCK-8 assay; assay type: functional, cell-based; details: HepG2, 72 h
[4] = tested on: MIA PaCa-2; test: Antiproliferative activity against human MIA PaCa-2 cells expressing KRAS G12C mutant assessed as inhibition of cell growth incubated for 72 hrs by CCK-8 assay; assay type: functional, cell-based; details: MIA PaCa-2, 72 h
[5] = Cytotoxicity against HEK293T cells assessed as inhibition of cell growth incubated for 72 hrs by CCK-8 assay; assay type: toxicity, cell-based, HEK-293T; details: human
[6] = AUC (0 to infinity) in ICR mouse at 30 mg/kg, ip measured after 24 hrs by LC-MS/MS analysis; assay type: ADME, organism-based; details: in vivo
[7] = Tmax in ICR mouse at 30 mg/kg, ip measured after 24 hrs by LC-MS/MS analysis; assay type: ADME, organism-based; details: in vivo
[8] = Volume of distribution at steady state in ICR mouse at 2 mg/kg, iv measured after 24 hrs by LC-MS/MS analysis; assay type: ADME, organism-based; details: in vivo
[9] = Clearance in ICR mouse at 2 mg/kg, iv measured after 24 hrs by LC-MS/MS analysis; assay type: ADME, organism-based; details: in vivo
[10] = tested on: NCI-H358; test: Inhibition of RAF-MEK-ERK pathway in human NCI-H358 cells assessed as decrease in ERK phosphorylation at 100 nM incubated for 6 to 8 days by Western blot analysis; assay type: cell-based; details: time 6-8 day
[11] = AUC (0 to infinity) in ICR mouse at 2 mg/kg, iv measured after 24 hrs by LC-MS/MS analysis; assay type: ADME, organism-based; details: in vivo
[12] = tested on: MIA PaCa-2; test: Inhibition of RAF-MEK-ERK pathway in human MIA PaCa-2 cells assessed as decrease in ERK phosphorylation at 100 nM incubated for 6 to 8 days by Western blot analysis; assay type: cell-based; details: time 6-8 day
[13] = Half life in ICR mouse at 2 mg/kg, iv measured after 24 hrs by LC-MS/MS analysis; assay type: ADME, organism-based; details: in vivo
[14] = AUC (0 to t) in ICR mouse at 30 mg/kg, ip measured after 24 hrs by LC-MS/MS analysis; assay type: ADME, organism-based; details: in vivo
[15] = Inhibition of PI3K-AKT-mTOR pathway in human MIA PaCa-2 cells assessed as decrease in […] phosphorylation at 100 nM incubated for 6 to 8 days by Western blot analysis; assay type: cell-based; details: time 6-8 day
[16] = Inhibition of PI3K-AKT-mTOR pathway in human NCI-H358 cells assessed as decrease in […] phosphorylation at 100 nM incubated for 6 to 8 days by Western blot analysis; assay type: cell-based; details: time 6-8 day
[17] = Cmax in ICR mouse at 30 mg/kg, ip measured after 24 hrs by LC-MS/MS analysis; assay type: ADME, organism-based; details: in vivo
[18] = AUC (0 to t) in ICR mouse at 2 mg/kg, iv measured after 24 hrs by LC-MS/MS analysis; assay type: ADME, organism-based; details: in vivo
[19] = Half life in ICR mouse at 30 mg/kg, ip measured after 24 hrs by LC-MS/MS analysis; assay type: ADME, organism-based; details: in vivo
[20] = Cmax in ICR mouse at 2 mg/kg, iv measured after 24 hrs by LC-MS/MS analysis; assay type: ADME, organism-based; details: in vivo
[21] = tested on: SW837; test: Antiproliferative activity against human SW837 cells expressing KRAS G12C mutant assessed as relative cell viability at 200 nM incubated for 72 hrs by CCK-8 assay; assay type: functional; details: read-out: Activity
[22] = tested on: NCI-H358; test: Antiproliferative activity against human NCI-H358 cells expressing KRAS G12C mutant assessed as relative cell viability at 200 nM incubated for 72 hrs by CCK-8 assay; assay type: functional; details: read-out: Activity
[23] = tested on: Calu-1; test: Antiproliferative activity against human Calu-1 cells expressing KRAS G12C mutant assessed as relative cell viability at 200 nM incubated for 72 hrs by CCK-8 assay; assay type: functional; details: read-out: Activity
[24] = tested on: NCI-H23; test: Antiproliferative activity against human NCI-H23 cells expressing KRAS G12C mutant assessed as relative cell viability at 200 nM incubated for 72 hrs by CCK-8 assay; assay type: functional; details: read-out: Activity
[25] = tested on: MIA PaCa-2; test: Antiproliferative activity against human MIA PaCa-2 cells expressing KRAS G12C mutant assessed as relative cell viability at 200 nM incubated for 72 hrs by CCK-8 assay; assay type: functional; details: read-out: Activity
[26] = tested on: NCI-H358; test: Antiproliferative activity against human NCI-H358 cells expressing KRAS G12C mutant assessed as relative cell viability at 100 nM incubated for 72 hrs by CCK-8 assay; assay type: functional; details: read-out: Activity
[27] = tested on: SW837; test: Antiproliferative activity against human SW837 cells expressing KRAS G12C mutant assessed as relative cell viability at 100 nM incubated for 72 hrs by CCK-8 assay; assay type: functional; details: read-out: Activity
[28] = tested on: MIA PaCa-2; test: Antiproliferative activity against human MIA PaCa-2 cells expressing KRAS G12C mutant assessed as relative cell viability at 100 nM incubated for 72 hrs by CCK-8 assay; assay type: functional; details: read-out: Activity
[29] = tested on: NCI-H23; test: Antiproliferative activity against human NCI-H23 cells expressing KRAS G12C mutant assessed as relative cell viability at 100 nM incubated for 72 hrs by CCK-8 assay; assay type: functional; details: read-out: Activity
[30] = tested on: Calu-1; test: Antiproliferative activity against human Calu-1 cells expressing KRAS G12C mutant assessed as relative cell viability at 100 nM incubated for 72 hrs by CCK-8 assay; assay type: functional; details: read-out: Activity

IC50 [1] [nM]	IC50 [2] [nM]	IC50 [3] [nM]	IC50 [4] [nM]	Compound	IC50 at 72 h [5] [nM]	further results
631	> 10000	> 10000	434	C=CC(=O)N1CCN(c2nc(=O)n(-c3c(C)ccnc3C(C)C)c3nc(-c4c(F)cccc4OCCOCC(=O)Nc4cccc5c4CN(C4CCC(=O)NC4=O)C5=O)c(F)cc23)[C@@H](C)C1 (stereo not given in full)	> 10000	
765	> 10000	> 10000	690	C=CC(=O)N1CCN(c2nc(=O)n(-c3c(C)ccnc3C(C)C)c3nc(-c4c(F)cccc4OCCOCCOCC(=O)Nc4cccc5c4CN(C4CCC(=O)NC4=O)C5=O)c(F)cc23)[C@@H](C)C1 (stereo not given in full)	> 10000	
12	> 10000	> 10000	18	C=CC(=O)N1CCN(c2nc(=O)n(-c3c(C)ccnc3C(C)C)c3nc(-c4c(O)cccc4F)c(F)cc23)[C@@H](C)C1 [SOTORASIB]	> 10000	AUC(0-inf) [6]: 9450 ng·h/mL; Tmax [7]: 15 min; Vdss [8]: 1.62 L/kg; clearance [9]: 110 mL/min/kg; inhibition [10]: inactive; AUC [11]: 312 ng·h/mL; inhibition [12]: inactive; t1/2 [13]: 15.1 min; AUC(0-t) at 24 h [14]: 9440 ng·h/mL; inhibition [15]: inactive; inhibition [16]: inactive; Cmax [17]: 9840 ng/mL; AUC(0-t) at 24 h [18]: 311 ng·h/mL; half-life [19]: 238 min; Cmax [20]: 863 ng/mL
				C[C@@H](Oc1cc(-c2cnn(C3CCNCC3)c2)cnc1N)c1c(Cl)ccc(F)c1Cl [CRIZOTINIB]		viability at 0.2 µM [21]: 0.77%; viability at 0.2 µM [22]: 0.82%; viability at 0.2 µM [23]: 0.87%; viability at 0.2 µM [24]: 0.81%; viability at 0.2 µM [25]: 0.79%
289	> 10000	> 10000	481	C=CC(=O)N1CCN(c2nc(=O)n(-c3c(C)ccnc3C(C)C)c3nc(-c4c(F)cccc4OCc4cn(CCCCCC(=O)N[C@H](C(=O)N5C[C@H](O)C[C@H]5C(=O)NCc5ccc(-c6scnc6C)cc5)C(C)(C)C)nn4)c(F)cc23)[C@@H](C)C1	> 10000	
				NC1(c2ccc(-c3nc4ccn5c(=O)[nH]nc5c4cc3-c3ccccc3)cc2)CCC1 [MK-2206]		viability at 0.1 µM [26]: 0.88%; viability at 0.1 µM [27]: 0.84%; viability at 0.1 µM [28]: 0.92%; viability at 0.1 µM [29]: 0.85%; viability at 0.1 µM [30]: 0.82%
				CCN1CCN(c2ccc(Nc3cc(N(C)C(=O)Nc4c(Cl)c(OC)cc(OC)c4Cl)ncn3)cc2)CC1 [INFIGRATINIB]		viability at 0.1 µM [26]: 0.88%; viability at 0.1 µM [27]: 0.85%; viability at 0.1 µM [28]: 0.84%; viability at 0.1 µM [29]: 0.89%; viability at 0.1 µM [30]: 0.86%
562	> 10000	> 10000	529	C=CC(=O)N1CCN(c2nc(=O)n(-c3c(C)ccnc3C(C)C)c3nc(-c4c(F)cccc4OCc4cn(CC(=O)N[C@H](C(=O)N5C[C@H](O)C[C@H]5C(=O)NCc5ccc(-c6scnc6C)cc5)C(C)(C)C)nn4)c(F)cc23)[C@@H](C)C1	> 10000	
253	> 10000	> 10000	172	C=CC(=O)N1CCN(c2nc(=O)n(-c3c(C)ccnc3C(C)C)c3nc(-c4c(F)cccc4OCCN4CCN(CCC(=O)N[C@H](C(=O)N5C[C@H](O)C[C@H]5C(=O)NCc5ccc(-c6scnc6C)cc5)C(C)(C)C)CC4)c(F)cc23)[C@@H](C)C1	> 10000	
